Measured values as given in US20140315738A1, “MARINE MEDAKA GENES RESPONDING TO THE EXPOSURE OF ENDOCRINE-DISRUPTING CHEMICALS, AND METHOD FOR DIAGNOSING AN AQUATIC ECO-SYSTEM CONTAMINATION USING SAME” (priority 2011, published 2014).

Tested on: Javanese medaka (Oryzias javanicus) livers
Format: in vivo
Conditions: 76 μg/L, 48 hr, liver
Method: Javanese medaka was cultured in natural seawater filtered through three types of filters (10, 10 and 1 μm). Water temperature was fixed at 25° C. with underwater heater, and Artemia salina nauplii were fed once a day.
To 3 L beaker with 2 L filtered seawater therein, 10 male Javanese medaka bred in culture water tank were transported each time, and acclimated for 24 hr. […] Additionally, five Javanese medaka of Example <1-1> were exposed to BPA (76 μg/L) for 48 hr. […] The Javanese medaka was transported to ice water, one at a time, which momentarily stunned it, followed by beheading and evisceration and liver removal.
To the Javanese medaka livers of BPA exposed group (48 hr) produced from Example <1-2>, and of control group without exposure, 1 ml of TRI Reagent solution (Molecular Research Center Inc, Cincinnati, Ohio, USA) was added, homogenized with glass homogenizer, and left at room temperature for 5 min. Next, chloroform (200 μl) was added and mixed, left at room temperature for 10 min. After centrifugation for 15 min (12,000×g, 4° C.), supernatant was obtained, to which isopropanol (500 μl) was added and left at room temperature for 5 min. After centrifugation for about 20 min (12,000×g, 4° C.), solution was removed, thus leaving precipitate. To the precipitate, 70% ethanol solution (50 μl) was added and after centrifugation for 5 min, ethanol solution was removed, and the precipitate RNA was dried. After drying, the product was dissolved in appropriate amount of DEPC (diethylpyrocarbonate)-treated water.
The entire RNA of the distilled exposed group and non-exposed group were labeled with Cy3 and Cy5 as follows, using Agilent's Low RNA Input Linear Amplification Kit Plus (Agilent Technologies, USA). To be specific, RNA (1 μg) was mixed with dT-promoter primer and MMLV-Reverse transcriptase. After reverse transcription at 40° C. for 2 hr, T7 polymerase was added, and linear amplification was done at 40° C. for 2 hr. After the amplification process explained above, the samples of experimental and control groups were labeled with Cy3-CTP and Cy5-CTP, respectively.
Fluorescent-labeled cDNA sample was purified with Qiagen PCR purification kit, and eluted with distilled water. The purified, fluorescent-labeled cDNA sample was added to hybridization buffer (3×SSC, 0.3% SDS, 50% formamide, 20 μg Cot-1 DNA, 20 μg yeast tRNA), and concentrated with microcon YM-30. After hybridization, the hybridized compound was heated at 95° C. for 3 min for denaturization, and the temperature of the heated, hybridized compound was decreased by centrifugation for 30 sec at 12,000 g. The produced Javanese medaka cDNA microarray was covered with coverslip, and the denaturized, hybridized compound was pipetted. The microarray was put into GT-Hyb chamber for reaction to occur at 65° C. for 16 hr. After hybridization, the microarray was taken out of the chamber, underwent cleansing process as explained below, rotated and dried, and stored in a dark room until scanning. The Javanese medaka microarray was then scanned with Axon GenePix 4000B scanner (Axon Instrument, USA). On the GenePix Pro 6.0 program, dots from the scanned image were gridded using gridding file, and quantified to produce GPR file including analysis on cy5/Cy3 magnitudes and ratios.
Based on the GPR file obtained with the GenePix Pro Program, the following analysis was made using analysis program, i.e., GeneSpring 7.3.1 (Agilent Technologies, USA). Normalization: by LOWESS (locally weighted regression scatterplot smoothing). Reliable gene): significant genes were obtained by flagging out dots whose sums of medial values were less than the background, or dots whose standard deviations of pixel values are not significant. Significant genes: dots whose normalized ratio is at […] higher interval, were screened. […]

[1] = Down-regulation, + = increased expression level
[2] = Up-regulation, − = decreased expression level

In the case of `CC(C)(c1ccc(O)cc1)c1ccc(O)cc1` [BPA, Bisphenol A], the “Fold difference, 40S ribosomal protein S19 (No. 115)” value [1] is reported as “+2.00 fold”, the “Fold difference, ATP citrate lyase (ACLY), transcript variant 2 (No. 154)” value [1] is reported as “+2.84 fold” and the “Fold difference, ATP-binding cassette transporter sub-family G member 2b (No. 146)” value [1] is reported as “+2.59 fold”. For the same compound, the “Fold difference, GTP cyclohydrolase 1 precursor (No. 148)” value [1] was “+2.60 fold”, the “Fold difference, Iron-responsive element-binding protein 1 (No. 141)” value [1] was “+2.25 fold” and the “Fold difference, Isocitrate dehydrogenase (No. 153)” value [1] was “+2.72 fold”. For the same compound, the “Fold difference, NADH dehydrogenase subunit 4 (No. 126)” value [1] was “+2.08 fold”, the “Fold difference, Nedd4 family interacting protein 2 (No. 132)” value [1] was “+2.13 fold” and the “Fold difference, Restin (Cytoplasmic linker protein-170 alpha-2) (No. 133)” value [1] was “+2.14 fold”. For the same compound, the “Fold difference, Ribosomal protein S14, transcript variant 4 (No. 158)” value [1] was “+3.11 fold”, the “Fold difference, TBT-binding protein (No. 120)” value [1] was “+2.02 fold” and the “Fold difference, Thyroid hormone receptor-associated protein complex 150 kDa component (No. 149)” value [1] was “+2.62 fold”. The “Fold difference, Transforming growth factor-beta-induced protein ig-h3 (No. 114)” value [1] was “+2.00 fold”, the “Fold difference, Translation initiation factor eIF-2B subunit epsilon (No. 157)” value [1] was “+3.00 fold” and the “Fold difference, Transmembrane protein 85 (No. 159)” value [1] was “+5.22 fold”. The “Fold difference, adult alpha-type globin (No. 147)” value [1] was “+2.59 fold”, the “Fold difference, alcohol dehydrogenase Class VI (ADH8) (No. 116)” value [1] was “+2.01 fold” and the “Fold difference, alpha-2-macroglobulin (No. 119)” value [1] was “+2.01 fold”. The “Fold difference, alpha-2-macroglobulin-2 (No. 123)” value [1] was “+2.03 fold”, the “Fold difference, apolipoprotein A-IV4 (No. 156)” value [1] was “+2.94 fold” and the “Fold difference, arginyl-tRNA synthetase (No. 145)” value [1] was “+2.52 fold”. The “Fold difference, calreticulin (No. 142)” value [1] was “+2.25 fold”, the “Fold difference, carboxyl ester lipase, tandem duplicate 2 (No. 118)” value [1] was “+2.01 fold” and the “Fold difference, catalase (No. 135)” value [1] was “+2.16 fold”. For the same compound, the “Fold difference, choriogenin L (No. 130)” value [1] was “+2.12 fold”, the “Fold difference, chymotrypsinogen 2-like protein (No. 140)” value [1] was “+2.22 fold” and the “Fold difference, complement component C9 (No. 122)” value [1] was “+2.03 fold”. The “Fold difference, complement factor B/C2-B (No. 131)” value [1] was “+2.12 fold”, the “Fold difference, complement regulatory plasma protein (No. 128)” value [1] was “+2.11 fold” and the “Fold difference, cyclin B2 (No. 152)” value [1] was “+2.66 fold”. For the same compound, the “Fold difference, cyclin Y-like 1 (No. 127)” value [1] was “+2.09 fold”, the “Fold difference, decorin mRNA (No. 155)” value [1] was “+2.87 fold” and the “Fold difference, delta 6-desaturase (No. 143)” value [1] was “+2.39 fold”. For the same compound, the “Fold difference, glutathione S transferase Rho-class (No. 162)” value [1] was “+6.90 fold”, the “Fold difference, heat shock protein 84b (No. 160)” value [1] was “+5.53 fold” and the “Fold difference, hepcidin-like precursor (No. 125)” value [1] was “+2.07 fold”. The “Fold difference, hypoxanthine phosphoribosyltransferase 1 (No. 138)” value [1] was “+2.17 fold”, the “Fold difference, kelch domain containing 10 (No. 144)” value [1] was “+2.42 fold” and the “Fold difference, kelch-like ECH-associated protein 1b (No. 124)” value [1] was “+2.06 fold”. The “Fold difference, keratin 15 (No. 121)” value [1] was “+2.02 fold”, the “Fold difference, malate dehydrogenase (No. 117)” value [1] was “+2.01 fold” and the “Fold difference, ornithine decarboxylase antizyme large isoform ORF1 (No. 134)” value [1] was “+2.15 fold”. The “Fold difference, protein kinase C and casein kinase substrate in neurons 2 (No. 129)” value [1] was “+2.12 fold”, the “Fold difference, protein phosphatase 2A regulatory subunit B′ delta isoform (No. 151)” value [1] was “+2.63 fold” and the “Fold difference, ring finger protein 141 (No. 136)” value [1] was “+2.16 fold”. The “Fold difference, sex hormone-binding globulin (No. 150)” value [1] was “+2.62 fold”, the “Fold difference, warm-temperature-acclimation-related-65 kDa-protein (C79) (No. 161)” value [1] was “+5.88 fold” and the “Fold difference, 5,10-methylenetetrahydrofolate reductase (NADPH)-like mRNA (No. 106)” value [2] was −2.06 fold. The “Fold difference, 40S ribosomal protein S18 (No. 89)” value [2] was −2.43 fold, the “Fold difference, 60S acidic ribosomal protein P1 (No. 100)” value [2] was −2.13 fold and the “Fold difference, ATPase, H+ transporting, lysosomal, V1 subunit E isoform 1 (No. 109)” value [2] was −2.04 fold. For the same compound, the “Fold difference, DEAD-box RNA-dependent helicase p68 mRNA (No. 113)” value [2] was −2.01 fold, the “Fold difference, Glycerol-3-phosphate dehydrogenase (No. 80)” value [2] was −3.03 fold and the “Fold difference, HSPC038 protein (No. 79)” value [2] was −3.05 fold. For the same compound, the “Fold difference, MHC Class I Region (No. 74)” value [2] was −3.70 fold, the “Fold difference, Putative transmembrane 4 superfamily member protein (No. 111)” value [2] was −2.02 fold and the “Fold difference, TRAF-binding protein (No. 78)” value [2] was −3.17 fold. For the same compound, the “Fold difference, Transcription initiation factor IIA gamma chain (No. 108)” value [2] was −2.06 fold, the “Fold difference, Uridine phosphorylase 1 (No. 99)” value [2] was −2.16 fold and the “Fold difference, bromodomain containing 2 (RING3) gene (No. 92)” value [2] was −2.35 fold. The “Fold difference, c-type lysozyme mRNA (No. 98)” value [2] was −2.18 fold, the “Fold difference, carnitine O-acetyltransferase precursor (No. 83)” value [2] was −2.78 fold and the “Fold difference, cathepsin F (No. 105)” value [2] was −2.08 fold. The “Fold difference, choriogenin Hminor (No. 102)” value [2] was −2.09 fold, the “Fold difference, cyclin G2 (No. 95)” value [2] was −2.27 fold and the “Fold difference, cysteine dioxygenase (No. 94)” value [2] was −2.32 fold. For the same compound, the “Fold difference, estrogen receptor beta 2 (No. 91)” value [2] was −2.37 fold, the “Fold difference, eukaryotic peptide chain release factor GTP-binding subunit (No. 88)” value [2] was −2.45 fold and the “Fold difference, glucose-regulated protein 94 (No. 104)” value [2] was −2.09 fold. For the same compound, the “Fold difference, glutathione S-transferase (No. 93)” value [2] was −2.33 fold, the “Fold difference, heart-type fatty acid-binding protein (No. 101)” value [2] was −2.12 fold and the “Fold difference, leukocyte elastase inhibitor (No. 110)” value [2] was −2.04 fold. For the same compound, the “Fold difference, mitogen-activated protein kinase 1 (No. 107)” value [2] was −2.06 fold, the “Fold difference, mitogen-activated protein kinase (p38) (No. 112)” value [2] was −2.02 fold and the “Fold difference, muscleblind mRNA (No. 85)” value [2] was −2.53 fold. The “Fold difference, phosphoenolpyruvate carboxykinase (No. 86)” value [2] was −2.51 fold, the “Fold difference, proline rich 6 (No. 71)” value [2] was −5.99 fold and the “Fold difference, proteasome subunit, beta type 8 (No. 81)” value [2] was −2.96 fold. The “Fold difference, protein kinase C and casein kinase substrate in neurons 1 (No. 96)” value [2] was −2.22 fold, the “Fold difference, protein phosphatase 2 regulatory subunit B beta (No. 87)” value [2] was −2.50 fold and the “Fold difference, protein tyrosine phosphatase-like, member b (No. 77)” value [2] was −3.23 fold. The “Fold difference, retinoid X receptor beta (RXRB) gene (No. 76)” value [2] was −3.42 fold, the “Fold difference, ribosomal protein L13 (No. 103)” value [2] was −2.09 fold and the “Fold difference, septin 7b (sept7b), transcript variant 1 (No. 97)” value [2] was −2.20 fold. The “Fold difference, telomerase reverse transcriptase gene (No. 72)” value [2] was −4.31 fold, the “Fold difference, trypsinogen (No. 82)” value [2] was −2.88 fold and the “Fold difference, trypsinogen (No. 90)” value [2] was −2.42 fold. The “Fold difference, tubulin, beta 5 (No. 84)” value [2] was −2.56 fold, the “Fold difference, uridine phosphorylase 2 (No. 73)” value [2] was −3.77 fold and the “Fold difference, vitellogenin II (No. 75)” value [2] was −3.69 fold.
